Assay results as given in the supplement of paper PMC10307832.

What was measured:
Test in all cases: relative viability (nuclei count vs DMSO), 5 days (fraction); higher = more cells survive
[1] = compound: CCn1c(-c2nonc2N)nc2c(C#CC(C)(C)O)ncc(OC[C@H]3CCCNC3)c21 + CC(C)C[C@H](NC(=O)[C@H](Cc1ccccc1)NC(=O)c1cnccn1)B(O)O [Bortezomib] (partner 0.002 µM)
Summary of the method: (§1)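 Cells from lung cancer lines were seeded into 1536-well plates and, one day later, dosed by pin tool. Treatments were either a single drug or a fixed dose of an anchor drug with five library-drug doses (not always all listed) in √10 steps. After 5 days, nuclei were stained in a one-step fixation (final 0.05% Triton X-100, 1% formaldehyde, 1 ug/ml Hoechst) and counted on 4× images, and relative viability is the treated-to-vehicle nuclei ratio, as the median of duplicate plates.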

[2] = compound: CCn1c(-c2nonc2N)nc2c(C#CC(C)(C)O)ncc(OC[C@H]3CCCNC3)c21 + CC(=O)c1c(C)c2cnc(Nc3ccc(N4CCNCC4)cn3)nc2n(C2CCCC2)c1=O [Palbociclib] (partner 0.5 µM)
Summary of the method: as §1

[3] = compound: CCn1c(-c2nonc2N)nc2c(C#CC(C)(C)O)ncc(OC[C@H]3CCCNC3)c21 + NC(=O)Nc1cc(-c2cccc(F)c2)sc1C(=O)N[C@H]1CCCNC1 [AZD7762] (partner 0.2 µM)
Summary of the method: as §1

BAM7 + Alpelisib = compound: CCOC1=CC=CC=C1N=NC2=C(NN(C2=O)C3=NC(=CS3)C4=CC=CC=C4)C [BAM7] + Cc1nc(NC(=O)N2CCC[C@H]2C(N)=O)sc1-c1ccnc(C(C)(C)C(F)(F)F)c1 [Alpelisib] (partner 2 µM)
Summary of the method: as §1

Cell Line | relative viability ([1]; first compound 0.01 µM) | relative viability ([1]; first compound 0.03162 µM) | relative viability ([1]; first compound 0.3162 µM) | relative viability ([1]; first compound 1 µM) | relative viability ([2]; first compound 0.01 µM) | relative viability ([2]; first compound 0.03162 µM) | relative viability ([2]; first compound 0.1 µM) | relative viability ([2]; first compound 0.3162 µM) | relative viability ([2]; first compound 1 µM) | relative viability ([3]; first compound 0.01 µM) | relative viability ([3]; first compound 0.03162 µM) | relative viability ([3]; first compound 0.1 µM) | relative viability ([3]; first compound 0.3162 µM) | relative viability ([3]; first compound 1 µM) | relative viability (BAM7 + Alpelisib; first compound 0.5 µM) | relative viability (BAM7 + Alpelisib; first compound 5 µM) | relative viability (BAM7 + Alpelisib; first compound 15.81 µM) | relative viability (BAM7 + Alpelisib; first compound 50 µM) | relative viability ([1]; first compound 0.1 µM)
NCI-H2347 | 0.644 | 0.861 | 0.888 | 0.933 | 0.394 | 0.445 | 0.492 | 0.422 | 0.435 | 0.612 | 0.738 | 0.636 | 0.63 | 0.562 | 1.03 | 1.23 | 1.04 | 0.985 | –
NCI-H1993 | 1.23 | 1.23 | 1.03 | 0.975 | 0.55 | 0.642 | 0.628 | 0.659 | 0.542 | 0.836 | 0.954 | 0.923 | 0.738 | 0.725 | 0.766 | 0.689 | 0.585 | 0.629 | 1.11
NCI-H322M | 1.21 | 1.18 | 1.19 | 1.19 | 0.456 | 0.48 | 0.487 | 0.463 | 0.475 | 0.591 | 0.661 | 0.562 | 0.516 | 0.625 | 0.859 | 0.816 | 0.803 | 0.801 | 1.26
NCI-H838 | 1.25 | 0.971 | 0.545 | 0.655 | 0.19 | 0.221 | 0.199 | 0.172 | 0.227 | 0.957 | 1.02 | 0.988 | 0.855 | 0.9 | 1.06 | 1.05 | 0.989 | 1 | 0.945
HARA | 1.1 | 1.14 | 1.07 | 1.11 | 0.303 | 0.344 | 0.269 | 0.268 | 0.209 | 0.269 | 0.629 | 0.485 | 0.156 | 0.299 | 0.879 | 0.816 | 0.594 | 0.847 | 1.08
NCI-H2087 | 0.682 | 0.873 | 0.766 | 0.774 | 0.214 | – | 0.225 | 0.248 | 0.293 | 1.31 | – | 1.13 | 1.35 | 1.42 | 1.17 | 1.15 | 0.917 | 0.985 | 0.655
NCI-H1437 | 0.616 | 0.538 | 0.357 | 0.483 | 0.295 | 0.297 | 0.338 | 0.281 | 0.359 | 1.03 | 1.17 | 1.18 | 1.08 | 0.953 | 1.07 | 1 | 0.911 | 0.909 | 0.593
NCI-H1792 | 1.04 | 0.968 | 0.861 | 0.768 | 0.607 | – | 0.601 | 0.586 | 0.701 | 0.761 | 1.01 | 0.794 | 0.612 | 0.602 | 0.782 | 0.85 | 0.624 | 0.708 | 0.964
NCI-H650 | 0.679 | 0.604 | 0.758 | 0.635 | 0.318 | 0.33 | 0.304 | 0.368 | 0.325 | 0.948 | 1.05 | 0.998 | 0.878 | 1.08 | 1.03 | 1.33 | 1.04 | 1.08 | 0.759
201T | 1.1 | 1.14 | 1.07 | 1.09 | 0.35 | 0.378 | 0.33 | 0.352 | 0.36 | 0.679 | 0.713 | 0.628 | 0.51 | 0.68 | 1.05 | 1.05 | 0.825 | 1.01 | 1.1
HCC-44 | 0.893 | 0.808 | 0.907 | 0.911 | 0.973 | 0.939 | 0.964 | 0.813 | 1.04 | 1.03 | 0.946 | 0.997 | 1.12 | 1.08 | 0.829 | 0.708 | 0.702 | 0.735 | 0.89
H3255 | 0.634 | 0.679 | 0.788 | 0.688 | 0.291 | 0.303 | 0.345 | 0.296 | 0.297 | 0.857 | 0.943 | 1 | 0.839 | 0.846 | 0.691 | 0.673 | 0.649 | 0.734 | 0.83
NCI-H647 | 0.972 | 1.25 | 1.02 | 0.812 | 0.349 | 0.401 | 0.416 | 0.309 | 0.337 | 0.433 | 0.437 | 0.45 | 0.423 | 0.486 | 1.27 | 1.32 | 1.05 | 1.17 | 0.937
NCI-H23 | 0.974 | 1.06 | 0.861 | 1.13 | 0.44 | 0.481 | 0.52 | 0.575 | 0.55 | 0.222 | 0.268 | 0.228 | 0.208 | 0.265 | 0.743 | 0.782 | 0.656 | 0.723 | 0.913
NCI-H460 | 1.01 | 1.26 | 1.04 | 1.12 | 0.146 | 0.0929 | 0.18 | 0.127 | 0.139 | 0.633 | 0.649 | 0.575 | 0.636 | 0.618 | 0.514 | 0.468 | 0.473 | 0.403 | 1.13
EKVX | 1.01 | 0.862 | 0.994 | 0.965 | 0.411 | 0.408 | 0.378 | 0.374 | 0.419 | 0.699 | 0.687 | 0.632 | 0.732 | 0.596 | 0.891 | 0.794 | 0.513 | 0.597 | 1.15
EPLC-272H | 0.859 | 0.957 | 0.96 | 0.847 | 0.32 | 0.371 | 0.297 | 0.281 | 0.259 | 0.198 | 0.171 | 0.17 | 0.192 | 0.211 | 1.08 | 0.802 | 0.877 | 0.831 | 0.894
NCI-H2126 | 1.05 | 1.13 | 1.09 | 1.1 | 0.325 | 0.319 | 0.365 | 0.335 | 0.377 | 0.995 | 0.982 | 1 | 1.02 | 1.04 | 0.703 | 0.677 | 0.606 | 0.704 | 1.08
LXF-289 | 1 | 0.963 | 0.976 | 1.02 | 0.63 | 0.568 | 0.608 | 0.581 | 0.605 | 1.2 | 1.15 | 1.11 | 1.06 | 1.1 | 1.1 | 1.11 | 1.02 | 1.07 | 1
NCI-H2405 | 0.982 | 0.897 | 0.929 | 0.967 | 0.52 | 0.539 | 0.472 | 0.481 | 0.511 | 0.773 | 0.77 | 0.792 | 0.731 | 0.721 | 0.862 | 0.773 | 0.684 | 0.839 | 0.91
NCI-H1755 | 0.956 | 0.917 | 0.923 | 0.906 | 0.451 | 0.514 | 0.463 | 0.437 | 0.422 | 0.501 | 0.418 | 0.382 | 0.406 | 0.425 | 0.994 | 0.982 | 0.902 | 0.948 | 0.939
HCC-78 | 0.553 | 0.513 | 0.498 | 0.527 | 0.519 | 0.487 | 0.454 | 0.465 | 0.43 | 0.627 | 0.532 | 0.579 | 0.614 | 0.445 | 0.395 | 0.21 | 0.294 | 0.365 | 0.503
LOU-NH91 | 0.57 | 0.344 | 0.448 | 0.47 | 0.511 | 0.541 | 0.527 | 0.535 | 0.479 | 0.78 | 0.693 | 0.755 | 0.689 | 0.68 | 0.753 | 0.728 | 0.629 | 0.684 | 0.481
NCI-H3122 | 1.05 | 1.03 | 1.1 | 1.08 | 0.177 | 0.18 | 0.176 | 0.175 | 0.219 | 1.01 | 1.03 | 0.997 | 0.975 | 1.04 | 0.881 | 0.822 | 0.804 | 0.763 | 1.07
HCC-827 | 1.07 | 1.04 | 0.988 | 1.02 | 0.473 | 0.507 | 0.412 | 0.431 | 0.466 | 0.233 | 0.256 | 0.273 | 0.199 | 0.196 | 1.03 | 0.97 | 1.01 | 1 | 1.09
NCI-H1975 | 0.379 | 0.351 | 0.314 | 0.289 | 0.484 | 0.599 | 0.51 | 0.544 | 0.305 | 0.663 | 0.694 | 0.811 | 0.695 | 0.641 | 0.539 | 0.508 | – | 0.548 | 0.438
NCI-H1651 | 0.905 | 0.901 | 0.903 | 0.989 | 0.518 | 0.528 | 0.505 | 0.49 | 0.56 | 0.401 | 0.472 | 0.454 | 0.447 | 0.337 | 1.01 | 0.861 | 0.967 | 0.883 | 0.864
NCI-H441 | 0.47 | 0.451 | 0.288 | 0.449 | 0.225 | 0.206 | 0.227 | 0.193 | 0.207 | 1.11 | 1.17 | 1 | 0.988 | 1.1 | 0.809 | 0.932 | 0.793 | 0.682 | 0.459
